# According to patent US10172816B2, “Method of treating chronic obstructive pulmonary disease (CPD) with verproside” (YUNGJIN PHARMACEUTICAL CO., LTD, priority 2013, dated 2019):
# Tests used:
# MMP-9 and NF-κB = experiment: COPD rat model: expression of proinflammatory proteins in lung tissue (Western blotting); format: in vivo, Sprague-Dawley rat; conditions: ATC2 and Verproside 30 mg/kg, Daxas 1 mg/kg, p.o.
# Description: (§1) The exposure of cigarette smoke was performed by using a cigarette smoke generator (CH Technology Corp. USA). In a detail, 1 hour after the orally administration of test samples using by Head/nose-only exposure unit (TSE System, German) according to nose-only method, the cigarette smoke was exposed by inhalation for 3 days every hour. 8 puffs (volume 35 ml, duration 2 sec, interval 1 time/min) per one piece of standard cigarette was performed in the experiment. The tested groups were divided into five groups, i.e., (i) normal group with no treatment (normal control, NC), (ii) control group exposed with cigarette smoke (COPD), (iii) test sample group treated with Daxas (1 mg/kg, p.o) 1 hr prior to cigarette smoke exposure (DA), (iv) test sample group treated with ATC2 (30 mg/ml, p.o) 1 hr prior to cigarette smoke exposure (YPL), and (v) test sample group treated with Verproside (30 mg/ml, p.o) 1 hr prior to cigarette smoke exposure (Ver).
# The protein obtained from homogenization was performed to electrophoresis at the dose of 30 μg/lane and transferred using by polyvinylidene difluoride (PVDF) membrane (IPVH00010, Millipore, USA).
# [1] = test system: KC/CXCL-1 (Chemokines Gro-α); experiment: COPD mouse model (LPS+CS): KC/CXCL-1 in BALF by ELISA; format: in vivo, BALB/c mice; conditions: 15 mg/kg, p.o.
# Description: 8 weeks aged BALB/c male mice was anaesthetized with 7% chloral hydrate and 100 μl of LPS+CS mixture {LPS (100 μg/ml)+standard cigarette extract (Cigarette smoking (CS), 4 mg/ml)=1:1} was inhaled to mice (i.t.) for three weeks once a week to prepare COPD animal model. Briefly, 100 μl of LPS+CS mixture was evenly inhaled to nose and mouth of fastened mice (i.t). […] After the end of experiment, the blood, BALF, and pneumonocyte of each mice were isolated and collected to test. The level of IL-1β, IL-6, TNF-a, IL-17, MCP-1, and GRO-a (BioSource, USA) in BALF isolated from mice was determined by enzyme-linked immuno-sorbent assay. Respective antibodies against L-1β, IL-6, TNF-a, IL-17, MCP-1, and GRO-a were diluted with a coating buffer solution (291195, R&D System, USA), coated on a microwell and left alone for overnight at 4° C. Each well was washed three times with washing buffer solution and 100 μl of 10-fold diluted serum was added thereto. […] The solution was left alone for 30 mins in shadow and added with 50 μl of stop solution (DY994, R&D system, USA) to determine the absorbance using by ELISA leader at 450 nm (340PC384, Molecular Devices, USA).
# MIP-2/CXCL-2 = experiment: COPD mouse model (LPS+CS): MIP-2/CXCL-2 in BALF by ELISA; format: in vivo, BALB/c mice; conditions: 15 mg/kg, p.o.
# [2] = test system: inflammatory immunocytes and neutrophils in BALF; experiment: COPD mouse model (LPS+CS, i.t.): immunocytes, neutrophils and T lymphocytes in BALF; format: in vivo, BALB/c mice; conditions: 15 mg/kg, p.o.
# Description: Specific pathogen-free male BALB/c mice (about 18-20 g), aged 8 weeks, which were routinely screened serologically for relevant respiratory pathogens, were purchased from ORIENT Co. (www.orient.co.kr, Seoul, Korea) and bred allowing to access freely to feed and water in breeding room controlling the temperature of 22±2° C., and humidity of 55±15% at the light-dark cycle for 12 hours and acclimated with the experimental environment for 1 week. […] 8 weeks aged BALB/c male mice was anaesthetized with 7% chloral hydrate and 100 μl of LPS+CS mixture {LPS (100 μg/ml)+standard cigarette extract (Cigarette smoking (CS), 4 mg/ml)=1:1} was inhaled to mice (i.t.) for three weeks once a week to prepare COPD animal model. Briefly, 100 μl of LPS+CS mixture was evenly inhaled to nose and mouth of fastened mice (i.t). […] After the end of experiment, the blood, BALF, and pneumonocyte of each mice were isolated and collected to test. After blood collection, 1 ml of FBS-free/DMEM medium contained in injector was injected to the trachea of autopsied mice, and the mice was fixed with string to circulate the blood three times and isolate the cell from BALF. […] The isolated PBMCs, BAL (Bronchoalveolar lavage), and pneumocyte were adjusted to 5×10^5 cells and performed to immunofluorescence staining at 4° C. PE-anti-CD3e (553064, BD Pharmingen, USA), FITC-anti-CD8 (553031, BD Pharmingen, USA), PE-anti-CD4 (553047, BD Pharmingen, USA), PE-anti-Gr-1 (553128, BD Pharmingen, USA), and FITC-anti-neutrophil (ab55453, Abcam, UK) were added thereto, respectively, and reacted for 30 mins in ice. After the reaction, the cells were washed with phosphate buffered physiological saline solution more than three times and the cell frequency (%) of CD3^+CD4^+& CD3^+CD8^+, and Gr-1^+Neutrophil^+ was determined using by Cell Quest program (643274, BD Biosciences, USA) of the flow cytometer (FACSCalibur, Becton, Dickinson, USA) and the absolute total number in each tissue was calculated by applying total cells.
# [3] = target: ADBR2 (beta-2 adrenergic receptor) GPCR (Homo sapiens, UniProt P07550); experiment: ADBR2 GPCR-targeting cell-based assay (spot formation); conditions: 20 micromole; U2OS cells stably expressing ADBR2 GPCR
# [4] = test system: inflammation in lung tissue; experiment: COPD rat model: histopathological examination of lung tissue; format: in vivo, Sprague-Dawley rat; conditions: p.o.
# Description: as §1
# Delivered lung was promptly fixed with 10% formaldehyde solution (F0161, SAMCHUN, Korea), and cut into slices. The slices were washed with running water for 8 hrs, embedded with epoxy, cut into slices with microtome (CUT4050, MicroTec, Germany) and stained with Hematoxylin (MHS-16, Sigma-Aldrich, USA) & Eosin (HT110-1-32, Sigma-Aldrich, USA). […]
# [5] = test system: neutrophils and total immunocytes in BALF; experiment: COPD rat model (cigarette smoke): immunocytes in BALF; format: in vivo, Sprague-Dawley rat; conditions: ATC2 and Verproside 30 mg/kg
# Description: 3 kinds of test samples, i.e., ATC2 (30 mg/kg), Verproside (30 mg/kg), Daxas (main ingredient: Roflumilast, 1 mg/kg) were dissolved in PBS and uses as test samples.
# ATC2, Verproside, Daxas were orally administrated to the mice at the dose of 4 mg/kg, 1 hour before prior the intratracheal instillation (i.t.).
# The exposure of cigarette smoke was performed by using a cigarette smoke generator (CH Technology Corp. USA). In a detail, 1 hour after the orally administration of test samples using by Head/nose-only exposure unit (TSE System, German) according to nose-only method, the cigarette smoke was exposed by inhalation for 3 days every hour. 8 puffs (volume 35 ml, duration 2 sec, interval 1 time/min) per one piece of standard cigarette was performed in the experiment. The tested groups were divided into five groups, i.e., (i) normal group with no treatment (normal control, NC), (ii) control group exposed with cigarette smoke (COPD), (iii) test sample group treated with Daxas (1 mg/kg, p.o) 1 hr prior to cigarette smoke exposure (DA), (iv) test sample group treated with ATC2 (30 mg/ml, p.o) 1 hr prior to cigarette smoke exposure (YPL), and (v) test sample group treated with Verproside (30 mg/ml, p.o) 1 hr prior to cigarette smoke exposure (Ver). After the end of experiment, the blood, BALF, and pneumonocyte of each rat were isolated and collected to test.
# After finishing the experiment, rats were anesthetized with Zoletil50 (3VX9, Virbac, France, p.o) and the blood was delivered through caudal veins. In order to isolate BALF from lung, the bronchus of right lung was ligated with suture and then performed to tracheotomy. IV-use catheter (16 GA, 3S-Cath, Dukwoo, Korea) was put into the bronchus, and both of bronchus and catheter (16 GA, 3S-Cath, Dukwoo, Korea) were fixed with suture. […] The light lung ligated with suture was isolated, fixed with 10% neutral formalin solution, and the remaining lung tissue was reserved in refrigerator at −70° C. […]
# ADBR2 (beta-2 adrenergic receptor) GPCR, sequence (P07550 whole entry): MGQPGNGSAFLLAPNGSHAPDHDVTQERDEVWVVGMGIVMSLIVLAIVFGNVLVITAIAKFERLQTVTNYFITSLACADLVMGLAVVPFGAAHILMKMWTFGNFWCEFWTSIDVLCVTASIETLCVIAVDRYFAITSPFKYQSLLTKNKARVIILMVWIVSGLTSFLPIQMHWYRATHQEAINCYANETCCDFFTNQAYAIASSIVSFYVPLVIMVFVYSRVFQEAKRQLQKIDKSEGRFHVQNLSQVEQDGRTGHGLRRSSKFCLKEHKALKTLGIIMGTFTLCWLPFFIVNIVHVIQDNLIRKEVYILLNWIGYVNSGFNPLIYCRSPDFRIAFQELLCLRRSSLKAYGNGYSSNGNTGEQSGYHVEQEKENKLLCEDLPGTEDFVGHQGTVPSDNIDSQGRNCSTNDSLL
structure (smiles),measurement,setting,value
"O=C(O[C@H]1[C@@H]2C=CO[C@@H](O[C@@H]3O[C@H](CO)[C@@H](O)[C@H](O)[C@H]3O)[C@@H]2[C@@]2(CO)O[C@@H]12)c1ccc(O)c(O)c1 [verproside, 6-O-(3,4-dihydroxybenzoyl) catalpol]","expression of proinflammatory protein (MMP-9, NF-κB) in lung tissue compared with COPD induced group",MMP-9 and NF-κB,significant decreased
same,reduction of chemokine KC/CXCL-1 in BALF compared with control group,[1],more than 57.4%
same,reduction of chemokines MIP-2/CXCL-2 in BALF compared with control group,MIP-2/CXCL-2,more than 63.0%
same,number of total immunocyte in BALF compared with control group,[2],sharply reduced
same,"reduction of number of neutrophils (Diff-Quik stained, cytospin) in BALF compared with control group",[2],more than 94.2%
same,reduction of total absolute cell number of CD4+ T cell in BALF compared with control group,[2],more than 32.9%
same,reduction of total absolute cell number of CD8+ T cell in BALF compared with control group,[2],not significantly different
same,reduction of total absolute cell number of Neutrophils+Gr-1+ cell in BALF compared with control group,[2],more than 93.9%
same,spot formation,[3],did not show spot formation
same,inhibitory effect on inflammation in lung tissue relative to Daxas group,[4]; ATC2 and Verproside 30 mg/kg versus Daxas 1 mg/kg,more potent
same,inflammation (infiltration of inflammatory cells) in lung tissue compared with COPD induced group,"[4]; ATC2 and Verproside 30 mg/kg, Daxas 1 mg/kg",significant decreased
same,ratio of the number of neutrophils to that of immunocytes (counting 300 immunocytes) compared with COPD induced group,"[5]; Daxas 1 mg/kg, p.o.",remarkably reduced ratio
same,level of neutrophils in BALF compared with COPD induced group,"[5]; Daxas 1 mg/kg, p.o. 1 hr prior to cigarette smoke exposure",remarkably reduced level
same,level of total immunocytes in BALF compared with COPD induced group,[5]; p.o. 1 hr prior to cigarette smoke exposure,remarkably reduced level
